This series has as its target T1, CYP2A6 (Homo sapiens, UniProt P11509).
T1 construct: from tissue; host or cells: ultrapooled human liver microsomes
T1 sequence (P11509 1-494): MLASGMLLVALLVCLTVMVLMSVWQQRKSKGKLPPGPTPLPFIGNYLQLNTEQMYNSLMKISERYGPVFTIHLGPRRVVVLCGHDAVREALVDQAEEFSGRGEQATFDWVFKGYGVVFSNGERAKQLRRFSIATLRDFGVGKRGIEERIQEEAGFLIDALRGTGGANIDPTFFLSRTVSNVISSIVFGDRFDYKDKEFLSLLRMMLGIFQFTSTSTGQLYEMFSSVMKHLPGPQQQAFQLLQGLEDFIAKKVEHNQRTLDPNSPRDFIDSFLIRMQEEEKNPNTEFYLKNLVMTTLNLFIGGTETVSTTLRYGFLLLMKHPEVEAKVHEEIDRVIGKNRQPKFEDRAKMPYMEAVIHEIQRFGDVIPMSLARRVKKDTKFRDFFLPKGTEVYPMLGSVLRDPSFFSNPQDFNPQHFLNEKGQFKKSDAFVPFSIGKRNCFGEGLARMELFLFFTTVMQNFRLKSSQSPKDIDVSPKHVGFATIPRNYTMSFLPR
Put plainly: CYP2A6-mediated coumarin 7-hydroxylation in pooled human liver microsomes. It counts as in vitro ADME. As to conditions: up to 50 µM, without 30-min preincubation. The protocol: The inhibitory potential (IC50 values) of EAM-2201 on CYP1A2, CYP2A6, CYP2C8, CYP2C9, CYP2C19, CYP2D6 and CYP3A4 were evaluated using ultrapooled human liver microsomes and a cocktail of seven CYP substrates followed by LC-tandem mass spectrometry (LC-MS/MS) as previously described. […] Aliquots (5 µL) of the diluted supernatants were analyzed using LC-MS/MS. […]
The metabolites formed from CYP substrates were simultaneously quantified using our previously described LC-MS/MS method. […] Quantification was performed by selected reaction monitoring (SRM) of the [M + H]^+ ion and the related product ion for each metabolite: acetaminophen, 152.1 > 110.3; N-desethylamodiaquine, 328.1 > 283.0; 7-hydroxycoumarin, 163.0 > 107.2; 4-hydroxybupropion, 256.1 > 238.0; 4′-hydroxydiclofenac, 312.0 > 231.1; 4′-hydroxy-mephenytoin, 235.1 > 150.1; 1′-hydroxybufuralol, 278.1 > 186.1; 1′-hydroxymidazolam, 341.9 > 324.0; ^13C2,^15N-acetaminophen, 155.1 > 111.2; and d9-1′-hydroxybufuralol, 287.2 > 187.0. […]
A general note: Liver microsomes are vesicles of endoplasmic reticulum, rich in cytochrome P450 enzymes.

These results are taken from paper PMC6017357, “In Vitro Inhibitory Effects of Synthetic Cannabinoid EAM-2201 on Cytochrome P450 and UDP-Glucuronosyltransferase Enzyme Activities in Human Liver Microsomes” (Molecules : A Journal of Synthetic Chemistry and Natural …, 2018).

Each structure is given as a SMILES string.

On to `CCc1ccc(C(=O)c2cn(CCCCCF)c3ccccc23)c2ccccc12` [EAM-2201, (4-ethyl-1-naphthalenyl)[1-(5-fluoropentyl)-1H-indol-3-yl]-methanone], for which the “inhibition of CYP2A6-mediated coumarin 7-hydroxylation” value is “negligibly inhibited”.
